Values of other authors, collected in patent US20120209535A1, “METHOD FOR GENERATING BIOMARKER REFERENCE PATTERNS” (BASF Plant Science Company GmbH, priority 2009, published 2012).
Like-named read-outs stand apart in the source and are kept apart here.

How the values were obtained:
liver = details: known effect
[1] = known effect
bladder = details: known effect

Row | Compound | lipid accumulation in the liver (liver) | liver carcinogen (liver) | liver enzyme inducer (liver) | immunosuppressant [1] | bladder carcinogen (bladder) | peroxisome proliferation effect (peroxisome proliferation) | peroxisome proliferation effect (peroxisome proliferation; expert knowledge and/or literature information)
1 | CC(=O)Nc1cccc2c1-c1ccccc1C2 [4-acetylaminofluorene] | lipid accumulation in the liver | no liver carcinogen | weak liver enzyme inducer | immunosuppressant | – | – | –
2 | CC(=O)Nc1ccc2c(c1)Cc1ccccc1-2 [2-Acetylaminofluorene] | – | liver carcinogen | potent liver enzyme inducer | immunosuppressant | bladder carcinogen | – | –
3 | CCCCOC(=O)c1ccccc1C(=O)OCCCC [dibutyl phthalate] | – | – | – | – | – | have the abovementioned effect | –
4 | Cc1cc(Cl)ccc1O[C@@H](C)C(=O)O [mecoprop-p] | – | – | – | – | – | – | have the abovementioned effect
